The structures appear in SMILES notation.

One may read the chromatographic logP as lipophilicity estimated from chromatographic retention. A low value points to a more hydrophilic compound. For orientation: inhibition means the change of the read-out against control, counted positive when it falls.

Series [1] relates to Xanthomonas campestris pv. campestris. Put plainly: In vivo preventive test on Xanthomonas campestris pv. campestris (black rot on cabbage). To be noted: Xanthomonas campestris, sprayed 72 hours before inoculation, evaluated 8 or 10 days after inoculation, read-out: efficacy; for pest or weed control at 31 ppm: 31 ppm of active ingredient; for pest or weed control at 125 ppm: 125 ppm of active ingredient. The gist of the method:
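Young cabbage plants sprayed preventively with compound formulated in acetone/DMSO/Tween and diluted in water, then inoculated 72 h later with a bacterial spray. Kept at 27° C, 95% relative humidity; disease scored after 8 or 10 days as % efficacy versus solvent-treated controls (0% = control, 100% = no disease).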

Series [2] in a line: LogP by HPLC on reversed phase columns (EEC directive 79/831 Annex V.A8). It is filed as physicochemical. To be noted: reversed phase HPLC columns; method [a]. The essentials: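 LogP derived from retention time, interpolated linearly between bracketing alkan-2-one standards (3 to 16 carbons). Where several values exist for one method, all are listed with "+"; UV spectra 200–400 nm at peak maxima gave lambda-max.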

Series [3] concerns Pseudomonas syringae pv. tomato. As to the kind of experiment: Pseudomonas syringae pv. tomato in vitro cell test. The series is classed as cell-based. To be noted: 20 ppm of active ingredient, 24 h of incubation, read-out: efficacy (inhibition of bacteria growth; no direct activity). The gist of the method: (§1)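 Bacteria from liquid pre-culture diluted to set OD in LB broth and exposed to compounds dissolved in DMSO (final ≤1%). After 24 h, growth read by absorbance; inhibition derived relative to compound-free control wells.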

The subject of series [4] is Colletotrichum lindemuthianum. Put plainly: In vivo preventive test on Colletotrichum lindemuthianum (Anthracnose on bean). To be noted: Colletotrichum lindemuthianum, 144 h, sprayed 72 hours before inoculation, evaluated 6 days after inoculation, read-out: efficacy; for pest or weed control at 500 ppm: 500 ppm of active ingredient; for pest or weed control at 125 ppm: 125 ppm of active ingredient. How it is done:
The tested active ingredients were prepared by homogenization in a mixture of acetone/Dimethyl sulfoxide/Tween®, and then diluted with water to obtain the desired active material concentration.
The young plants of bean were treated by spraying the active ingredient prepared as described above. Control plants were treated only with an aqueous solution of acetone/Dimethyl sulfoxide/Tween®.
After 72 hours, the plants were contaminated by spraying the leaves with an aqueous suspension of Colletotrichum lindemuthianum spores. The contaminated bean plants were incubated for 24 hours at 20° C. and at 100% relative humidity and then for 5 days at 20° C. and at 90% relative humidity.
The test was evaluated 6 days after the inoculation. 0% means an efficacy which corresponds to that of the control plants while an efficacy of 100% means that no disease was observed.

Series [5] has as its system Xanthomonas campestris pv. campestris. As to the kind of experiment: Xanthomonas campestris pv. campestris in vitro cell test. The series is classed as cell-based. To be noted: 24 h of incubation, read-out: efficacy (inhibition of bacteria growth; no direct activity); for inhibition at 5 ppm: 5 ppm of active ingredient; for inhibition at 20 ppm: 20 ppm of active ingredient. The gist of the method:
as §1

Series [6] relates to Colletotrichum lindemuthianum. As to the kind of experiment: Colletotrichum lindemuthianum in vitro cell test. It is filed as cell-based. To be noted: 144 h, 6 days incubation, read-out: efficacy (inhibition of fungal growth; no direct activity); for inhibition at 5 ppm: 5 ppm of active ingredient; for inhibition at 20 ppm: 20 ppm of active ingredient. The essentials: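 Inhibition of spore germination and mycelial growth in liquid culture, read spectrometrically after 6 days incubation. Compounds added from DMSO (final ≤1%) to spores in glucose/peptone/yeast-extract medium; absorbance compared with untreated controls.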

The next series deals with Peronospora parasitica. Put plainly: In vivo preventive test on Peronospora parasitica (Crucifer downy mildew) on cabbage. To be noted: Hyaloperonospora parasitica, 120 h, sprayed 72 hours before inoculation, evaluated 5 days after inoculation, read-out: efficacy; for pest or weed control at 31 ppm: 31 ppm of active ingredient; for pest or weed control at 125 ppm: 125 ppm of active ingredient; for pest or weed control at 500 ppm: 500 ppm of active ingredient. The essentials: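 Preventive protocol: spore inoculation followed compound spraying by 72 h, with 5 days' incubation at 20 °C and 100% relative humidity. Disease was rated 5 days after inoculation against solvent-only plants (0% = control level, 100% = disease-free).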

For another series, the system named is Alternaria alternata. As to the kind of experiment: Alternaria alternata in vitro cell test. To be noted: 120 h, 5 days incubation, read-out: efficacy (inhibition of fungal growth; no direct activity); for inhibition at 5 ppm: 5 ppm of active ingredient; for inhibition at 20 ppm: 20 ppm of active ingredient. The series is classed as cell-based. The gist of the method: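 A. alternata spores in glucose/peptone/yeast-extract liquid medium were exposed to DMSO-solubilized compound (final DMSO ≤1%). After 5 days incubation, mycelium growth read spectrometrically; inhibition derived from absorbance relative to fungicide-free control wells.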

Series [7] deals with salicylate responsive promoter sequence of the PR1 (pathogenesis-related protein I) gene (AT2G14610). As to the kind of experiment: Induction of defense gene expression in Arabidopsis thaliana (PR1 promoter-GFP reporter plants). The series is classed as in vivo. To be noted: 72 h, 3rd day after spraying, mock treated leaves set as 1.00, read-out: relative fluorescence value. The gist of the method: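 Transgenic A. thaliana carrying GFP under the salicylate-responsive PR1 promoter, grown five days, then sprayed with compounds. Whole-plant fluorescence imaged and quantified on day 3 post-spray, expressed relative to mock-treated leaf background set at 1.00.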

Another series relates to Uromyces appendiculatus. As to the kind of experiment: In vivo preventive test on Uromyces appendiculatus (bean rust). To be noted: 240 h, sprayed 72 hours before inoculation, evaluated 10 days after inoculation, read-out: efficacy; for pest or weed control at 31 ppm: 31 ppm of active ingredient; for pest or weed control at 125 ppm: 125 ppm of active ingredient; for pest or weed control at 500 ppm: 500 ppm of active ingredient. The essentials:
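Young bean plants sprayed with compound in acetone/DMSO/Tween diluted in water, then inoculated 72 h later with spore suspension. Incubated 24 h at 20° C., 100% RH, then 9 days at 20° C., 70-80% RH. Efficacy scored 10 days post-inoculation, 0% = untreated-control level, 100% = no disease.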

Take `CCOC(=O)C(CO)NC(=O)c1sc(Br)c(Br)c1C` (stereo not drawn) [I.006]: the pest or weed control at 500 ppm in series [1] (500 ppm of active ingredient) lay within 80 to 89%; in series [4] it was 70 to 79%; in the series on Peronospora parasitica, 90 to 100%; in the series on Uromyces appendiculatus it was 90 to 100%. Also, the chromatographic logP in series [2] worked out at 2.58. The inhibition at 20 ppm (in [3]; in series [5]; in the series with Alternaria alternata) was at most 30% throughout. In addition, the inhibition at 5 ppm (in [5]; in [6]; in the series with Alternaria alternata) was at most 30% in each case. The pest or weed control at 31 ppm in the series with Peronospora parasitica was in the range of 80 to 89%; in the series on Uromyces appendiculatus, 90 to 100%. Also, the pest or weed control at 125 ppm lay in the range of 90 to 100% in the series on Peronospora parasitica and 80 to 89% with Uromyces appendiculatus. The fold induction at 75 ppm in series [7] was above 2. Besides, in series [7], the fold induction at 300 ppm was above 2.
Regarding `COC(=O)C(Cc1c[nH]cn1)NC(=O)c1sc(Br)c(Br)c1C` (stereo not drawn) [I.033], the pest or weed control at 31 ppm in [1] lay in the range of 70 to 79%. Also, the pest or weed control at 125 ppm in [1] lay within 70 to 79%; in series [4] it was 80 to 89%; with Peronospora parasitica it was 70 to 79%. The compound further yielded a chromatographic logP in [2] of 1.5. For the same compound, the inhibition at 20 ppm (in series [3]; in series [5]; in series [6]; with Alternaria alternata) was at most 30% each time. The pest or weed control at 500 ppm lay in the range of 90 to 100% in [4], 80 to 89% in the series on Peronospora parasitica and 90 to 100% in the series with Uromyces appendiculatus. In addition, the inhibition at 5 ppm (in series [5]; in series [6]; in the series on Alternaria alternata) was at most 30% throughout. In series [7], the fold induction at 300 ppm was above 2.
On to `CCOC(=O)C(CO)NC(=O)c1sc(Cl)c(Cl)c1C` (stereo not drawn) [I.039], for which the pest or weed control at 31 ppm in series [1] was in the range of 70 to 79%; in the series with Peronospora parasitica, 90 to 100%. Besides, the results for the pest or weed control at 125 ppm (in [1]; in the series with Peronospora parasitica) were 70 to 79% and 90 to 100%, respectively. Moreover, the chromatographic logP in series [2] turned out to be 2.48. Further, the inhibition at 20 ppm (in series [3]; in [5]; in series [6]; in the series with Alternaria alternata) was at most 30% throughout. In addition, the pest or weed control at 500 ppm was in the range of 90 to 100% in [4], 90 to 100% in the series on Peronospora parasitica and 80 to 89% in the series on Uromyces appendiculatus. In addition, the inhibition at 5 ppm (in series [5]; in series [6]; with Alternaria alternata) was at most 30% each time. Also, the fold induction at 75 ppm in series [7] was above 2. Moreover, in [7], the fold induction at 300 ppm is above 2.
Turning to `CCOC(=O)C(COC)NC(=O)c1sc(Cl)c(Cl)c1C` (stereo not drawn) [I.044], the pest or weed control at 31 ppm lay within 70 to 79% in [1], 80 to 89% in series [4] (31 ppm of active ingredient), 90 to 100% with Peronospora parasitica and 90 to 100% in the series on Uromyces appendiculatus. Further, the pest or weed control at 125 ppm is 80 to 89% in series [1], 90 to 100% in series [4], 90 to 100% in the series with Peronospora parasitica and 90 to 100% in the series with Uromyces appendiculatus. This compound also came in with a chromatographic logP in series [2] of 3.37. The inhibition at 20 ppm in series [3] and in series [5] was at most 30% throughout. The pest or weed control at 500 ppm (in series [4]; in the series with Peronospora parasitica; with Uromyces appendiculatus) was 90 to 100% throughout. The inhibition at 5 ppm (in series [5]; in series [6]; in the series with Alternaria alternata) was at most 30% throughout. Further, the fold induction at 75 ppm in series [7] is above 2. For the same compound, the fold induction at 300 ppm in series [7] was above 2.

The record behind these values is US12509437B2, “Substituted thiophene carboxamides and derivatives thereof as microbicides” (Bayer Aktiengesellschaft, priority 2019, dated 2025).
